Test results as given in US10493158B2, “Pharmaceutical compositions for the treatment of inflammatory disorders” (GALAPAGOS NV, priority 2014, dated 2019).
Counter-ions that a name gives are not always drawn. One block for each compound: values may come before it.

How the values were obtained:
[1] = Dog bioavailability study (PK after single oral administration of capsules); assay type: in vivo, beagle dogs; details: for Cmax / Exposure AUC / Tmax: listed as HCl•trihydrate
Method: The dogs are not fasted before dosing, and have free access to water. Every day of the treatment, a half food ration is provided after the T0 blood sampling, 8 to 17 min before treatment, and the second half ration is given just after dosing or 1 h after treatment for period 2. A 3 days washout period is ensured between treatments.
The capsule composition is described in the table below.
The capsules are administered orally with water (5-10 mL), to provide good oesophageal transit. Each animal is checked at least once daily.
Blood is collected from the jugular vein into lithium heparinised tubes at T0 (before food administration) and then at 1 h, 2 h, 4 h, 6 h, 8 h, 10 h, and 24 h post treatment.
Plasma is then obtained from blood by centrifugation (2500 g for 10 min at 4° C.), and stored at −20° C. until analysis.
After vortex mixing and centrifugation at 4° C., the supernatants are diluted with a 0.5 volume of HPLC grade water in a midi-eppendorf 96-well plate. The plate is sealed and shaken to ensure sample homogeneity prior to analysis.
Pharmacokinetic analysis is performed using WinNonlin™ software version 5.3, using concentrations from individual animals. Non-compartmental analysis is applied to determine the PK parameters (Cmax, Tmax, AUC0-last, t1/2, etc . . . )
Concentrations below the limit of detection are set to zero for descriptive statistics and PK parameter calculations.

[2] = Accelerated stability study of Compound 1.HCl.3H2O (FT-IR, DSC, XRPD); assay type: physicochemical; details: 3 months
Source text: Samples of [Compound 1. HCl.3H2O] are stored under conditions to evaluate chemical stability and physical stability as described in the table below: [table] Samples are taken at T0, then every month up to 3 months, and analysed by FT-IR, DSC, and XRPD.

[3] = Salt study: XRPD analysis / hygroscopicity of the hydrochloric acid salt; assay type: physicochemical; details: salt containing 4-5% water
Method: (§1) The mixture is cooled to 25° C. at 1° C./min and stirred at 25° C. for 22 h. The solid is isolated by vacuum filtration and dried under suction.

[4] = Thermodynamic aqueous solubility by HPLC; assay type: physicochemical; details: water
Method: as §1

[5] = dogs, oral capsules, on average and at the 2 capsule strengths
[6] = male beagle dogs, single oral administration, capsules, dose 25 mg/kg
[7] = male beagle dogs, single oral administration, capsules, dose 100 mg/kg

AUC ([1]; male, beagle, dog, plasma, po, 100 mg/kg, male beagle dogs, single oral administration, capsules, dose 100 mg/kg, read-out: Exposure AUC): 11100 ng·h/mL
Structure (SMILES): O=C(Nc1nc2cccc(-c3ccc(CN4CCS(=O)(=O)CC4)cc3)n2n1)C1CC1 [Compound 1, cyclopropanecarboxylic acid {5-[4-(1,1-dioxo-thiomorpholin-4-ylmethyl)-phenyl]-[1,2,4]triazolo[1,5-a]pyridin-2-yl}-amide]

chemical and physical stability ([2]; 25° C./60% RH open, 40° C./75% RH open, 50° C. closed, RT/<5%, 56%, 75% RH open): stable under all conditions
change in crystallinity ([2]; all storage conditions of Table VI): no change in crystallinity
half-life ([1]; dog, plasma, male beagle dogs, single oral administration, one range printed across both forms and both doses): 4.43 to 8.96 h
in vivo exposure compared with Compound 1 (free base) [1, 5]: improved exposure
rate of absorption compared with Compound 1 (free base) [1, 5]: more rapidly absorbed
Cmax [1, 6]: 3050 ng/mL
Exposure AUC [1, 6]: 33600 ng·h/mL
Tmax [1, 6]: 2.0 h
Cmax [1, 7]: 2630 ng/mL
Exposure AUC [1, 7]: 21700 ng·h/mL
Tmax [1, 7]: 2.0 h
Structure (SMILES): O=C(Nc1nc2cccc(-c3ccc(CN4CCS(=O)(=O)CC4)cc3)n2n1)C1CC1 [Compound 1.HCl.3H2O, cyclopropanecarboxylic acid {5-[4-(1,1-dioxo-thiomorpholin-4-ylmethyl)-phenyl]-[1,2,4]triazolo[1,5-a]pyridin-2-yl}-amide]

hygroscopicity of the salt [3]: non-hygroscopic
solubility [4]: 1900 µg/mL
Structure (SMILES): O=C(Nc1nc2cccc(-c3ccc(CN4CCS(=O)(=O)CC4)cc3)n2n1)C1CC1 [hydrochloric acid salt of Compound 1, cyclopropanecarboxylic acid {5-[4-(1,1-dioxo-thiomorpholin-4-ylmethyl)-phenyl]-[1,2,4]triazolo[1,5-a]pyridin-2-yl}-amide]
